Data taken from ChEMBL document CHEMBL1135635, “Kappa-opioid receptor model in a phospholipid bilayer: molecular dynamics simulation” (J Med Chem, 2002).

Target: Kappa-type opioid receptor (Cavia porcellus, UniProt P41144)
Assay: Inhibition of [3H]U-69593 binding towards Opioid receptor kappa 1 in guinea pig brain homogenates.
Type: tissue-based

Kappa-type opioid receptor, sequence (P41144 whole entry): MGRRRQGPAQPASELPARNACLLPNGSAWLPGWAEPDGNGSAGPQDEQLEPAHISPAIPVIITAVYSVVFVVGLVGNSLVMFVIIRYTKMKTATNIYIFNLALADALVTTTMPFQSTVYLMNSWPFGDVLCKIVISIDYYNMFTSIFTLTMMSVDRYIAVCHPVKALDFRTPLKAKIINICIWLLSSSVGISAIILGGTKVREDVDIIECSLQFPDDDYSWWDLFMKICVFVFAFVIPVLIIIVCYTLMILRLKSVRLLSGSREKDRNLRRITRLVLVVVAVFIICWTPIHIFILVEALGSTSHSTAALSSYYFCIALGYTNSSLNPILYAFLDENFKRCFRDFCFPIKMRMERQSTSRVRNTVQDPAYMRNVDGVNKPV

SMILES	Ki
C[C@H]1C2Cc3ccc(O)cc3[C@@]1(C)CCN2CC1C[C@@]1(C(=O)Nc1ccccc1)c1ccccc1 (some centres not stated)	2350 nM
CC(=O)OC[C@@]1(c2ccccc2)CC1CN1CC[C@]2(C)c3cc(O)ccc3CC1[C@@H]2C (some centres not stated)	228 nM
